Experiments:
S. aureus MN8 = assay type: cell-based, Staphylococcus aureus; conditions: 24 hours at 35° C.
[1] = tested on: TSST-1 production by Staphylococcus aureus MN8; assay type: cell-based; conditions: 24 hours at 35° C.

Row | Substance | Final [S. aureus] (S. aureus MN8) | TSST-1 [1] [ng/mL]
1 | PPG-5 Laureth-5 | 3.82 × 10^9 CFU/ml | 609.2
2 | Laureth-4 | 4.57 × 10^9 CFU/ml | 531.8
3 | Steareth-2 | 5.76 × 10^9 CFU/ml | 680.7
